Laboratory results from patent US7790749B2, “Use of pleuromutilins for the treatment of disorders caused by Helicobacter pylori” (Nabriva Therapeutics AG, priority 2002, dated 2010).
≈ marks a conversion by molar mass, not a printed value. Read-outs that look alike come from different tables or passages of the source.

Key:
Type in all cases: cell-based
H.pylori ATCC 43629 = experiment: Agar Dilution Method, MIC against H.pylori ATCC 43629; settings: Helicobacter pylori, ATCC43629, 72 h, read-out: minimum inhibitory concentrations (MIC)
Protocol: (§1) Activity against strains of Helicobacter pylori is determined according to the Agar Dilution Method, using Mueller Hinton agar, supplementet with >2 week old horse blood (5% v/v), incubation at 35° C. for 3 days in a gas system-generated microaerobic atmosphere according to NCCLS recommendations, such as disclosed e.g. in “Methods for dilution antimicrobial susceptibility tests for bacteria that grow aerobically ”—Fourth edition; approved standard. M7-A4 Vol. 17 No. 2 (1997) and M100-S9 Vol. 19 No. 1 (1999).
(§2) Activity of TEST COMPOUNDS (TCs) against H.pylori strains ATCC 43504, 43526, 43629, 49503 and 51652 is determined according to the Agar Dilution Method, using Mueller Hinton agar, supplementet with >2 week old horse blood (5% v/v), incubation at 35° C. for 3 days in a gas system-generated microaerobic atmosphere according to NCCLS recommendations, such as disclosed in “Methods for dilution antimicrobial susceptibility tests for bacteria that grow aerobically “—Fourth edition; approved standard. M7-A4 Vol. 17 No. 2 (1997) and M100-S9 Vol. 19 No. 1(1999).

H.pylori ATCC 43504 = experiment: Agar Dilution Method, MIC against H.pylori ATCC 43504; settings: Helicobacter pylori, ATCC43504, 72 h, read-out: minimum inhibitory concentrations (MIC)
Protocol: as §1, §2

H.pylori ATCC 49503 = experiment: Agar Dilution Method, MIC against H.pylori ATCC 49503; settings: Helicobacter pylori, ATCC49503, 72 h, read-out: minimum inhibitory concentrations (MIC)
Protocol: as §1, §2

H.pylori ATCC 51652 = experiment: Agar Dilution Method, MIC against H.pylori ATCC 51652; settings: Helicobacter pylori, ATCC51652, 72 h, read-out: minimum inhibitory concentrations (MIC)
Protocol: as §1, §2

H.pylori ATCC 43526 = experiment: Agar Dilution Method, MIC against H.pylori ATCC 43526; settings: Helicobacter pylori, ATCC43526, 72 h, read-out: minimum inhibitory concentrations (MIC)
Protocol: as §1, §2

[1] = H.pylori/43629, Mueller Hinton agar, 5% horse blood, 35° C., 3 days, microaerobic
[2] = H.pylori/43504, Mueller Hinton agar, 5% horse blood, 35° C., 3 days, microaerobic
[3] = H.pylori/49503, Mueller Hinton agar, 5% horse blood, 35° C., 3 days, microaerobic
[4] = H.pylori/51652, Mueller Hinton agar, 5% horse blood, 35° C., 3 days, microaerobic
[5] = H.pylori/43526, Mueller Hinton agar, 5% horse blood, 35° C., 3 days, microaerobic

Row | MIC (H.pylori ATCC 43629; [1]) [µg/mL] | MIC (H.pylori ATCC 43504; [2]) [µg/mL] | MIC (H.pylori ATCC 49503; [3]) [µg/mL] | MIC (H.pylori ATCC 51652; [4]) [µg/mL] | MIC (H.pylori ATCC 43526; [5]) [µg/mL] | SMILES | MIC (H.pylori ATCC 43629) [µg/mL] | MIC (H.pylori ATCC 43504) [µg/mL] | MIC (H.pylori ATCC 49503) [µg/mL] | MIC (H.pylori ATCC 51652) [µg/mL] | MIC (H.pylori ATCC 43526) [µg/mL]
1 | < 0.0125 | 0.025 (≈ 0.0443 µM) | < 0.0125 | 0.025 (≈ 0.0443 µM) | 0.05 (≈ 0.0885 µM) | C=C[C@]1(C)C[C@@H](OC(=O)CSC(C)(C)CNC(=O)[C@H](N)C(C)C)[C@]2(C)[C@H](C)CC[C@]3(CCC(=O)[C@H]32)[C@@H](C)[C@@H]1O [TC-I, Valnemulin] |  |  |  |  | 
2 | < 0.0125 | 0.025 (≈ 0.0433 µM) | 0.025 (≈ 0.0433 µM) | 0.025 (≈ 0.0433 µM) | 0.05 (≈ 0.0867 µM) | C=C[C@]1(C)C[C@@H](OC(=O)CSC2CCCN(C(=O)C(N)C(C)C)C2)[C@]2(C)C(C)CCC3(CCC(=O)C32)[C@@H](C)C1O (some centres unmarked) [TC-III] |  |  |  |  | 
3 | < 0.0125 | < 0.0125 | 0.025 (≈ 0.0419 µM) | 0.025 (≈ 0.0419 µM) | 0.05 (≈ 0.0838 µM) | C=C[C@]1(C)C[C@@H](OC(=O)CSc2cccc(NC(=O)[C@@H]3CCCCN3)c2)[C@]2(C)C(C)CCC3(CCC(=O)C32)[C@@H](C)C1O (some centres unmarked) [TC-II] |  |  |  |  | 
4 |  |  |  |  |  | CN(C)[C@@H]1C(O)=C(C(N)=O)C(=O)[C@@]2(O)C(O)=C3C(=O)c4c(O)cccc4[C@@](C)(O)[C@H]3C[C@@H]12 [TEC, tetracycline] | 0.4 (≈ 0.9 µM) | 0.4 (≈ 0.9 µM) | 0.2 (≈ 0.45 µM) | 0.2 (≈ 0.45 µM) | 0.4 (≈ 0.9 µM)
